Legend:
[1] = Solubility of diethylborylated sugars and polysaccharides; type: physicochemical
[2] = Thermal stability (vacuum distillation / decomposition on heating); type: physicochemical

| solubility in hydrocarbons [1] | stability on distillation under high vacuum ([2]; high vacuum, 136° C.) | stability on vacuum distillation [2] | SMILES | solubility in aliphatic and aromatic hydrocarbons and in carbon tetrachloride ([1]; aliphatic and aromatic hydrocarbons and carbon tetrachloride) | Decomposition of the compound begins at ([2]; with evolution of triethyl borane) |
| --- | --- | --- | --- | --- | --- |
| very readily soluble | without decomposition | without decomposition | CCB(CC)OC[C@H]1OC(OB(CC)CC)[C@H](OB(CC)CC)[C@@H](OB(CC)CC)[C@@H]1OB(CC)CC (single isomer, unassigned) [1,2,3,4,5-Pentakis-diethyl-boryl-D(+)-glucose] |  |  |
| very readily soluble |  | without decomposition | CCB(CC)OC[C@H]1O[C@H](OC)[C@H](OB(CC)CC)[C@@H](OB(CC)CC)[C@@H]1OB(CC)CC [2,3,4,6-tetrakis(diethylboryl)-α-methyl-D-(+)-glucoside] |  |  |
| very readily soluble |  | without decomposition | CCB(CC)OC[C@H](OB(CC)CC)[C@H]1OC(=O)C(OB(CC)CC)=C1OB(CC)CC [2.3.5.6-Tetrakis-diethylboryl-L(+)-ascorbic acid] |  |  |
|  |  |  | CCB(CC)OC[C@H]1O[C@@H]2O[C@H]3[C@H](OB(CC)CC)[C@@H](OB(CC)CC)[C@@H](O[C@H]4[C@H](OB(CC)CC)[C@@H](OB(CC)CC)[C@@H](O[C@H]5[C@H](OB(CC)CC)[C@@H](OB(CC)CC)[C@@H](O[C@H]6[C@H](OB(CC)CC)[C@@H](OB(CC)CC)[C@@H](O[C@H]7[C@H](OB(CC)CC)[C@@H](OB(CC)CC)[C@@H](O[C@H]8[C@H](OB(CC)CC)[C@@H](OB(CC)CC)[C@@H](O[C@H]1[C@H](OB(CC)CC)[C@H]2OB(CC)CC)O[C@@H]8COB(CC)CC)O[C@@H]7COB(CC)CC)O[C@@H]6COB(CC)CC)O[C@@H]5COB(CC)CC)O[C@@H]4COB(CC)CC)O[C@@H]3COB(CC)CC [(I), Per-O-diethylboryl-cyclohepta-amylose] | soluble | 141 °C |

Reference: US4005132A, “Process for reacting trialkyl boranes with compounds containing protons” (Studiengesellschaft Kohle m.b.H., priority 1971, dated 1977)
